Reference: ChEMBL document CHEMBL2203009, “Synthesis of isoindole and benzoisoindole derivatives of teicoplanin pseudoaglycon with remarkable antibacterial and antiviral activities” (Bioorg Med Chem Lett, 2012)
≈ marks a conversion by molar mass, not a printed value.

What was measured:
[1] = Toxicity in MDCK cells assessed as induction of cell morphology changes; assay type: cell-based, Canis lupus familiaris; conditions: dog
H3N2 subtype = test: Antiviral activity against Influenza A virus (A/Hong Kong/7/1987(H3N2)) […] infected in MDCK cells assessed as inhibition of virus-induced cytopathic effect; assay type: functional, organism-based
[2] = tested on: Vesicular stomatitis virus; test: Antiviral activity against Vesicular stomatitis virus infected in HEL cells assessed as inhibition of virus-induced cytopathic effect; assay type: functional, organism-based
Human alphaherpesvirus 1 [3] = test: Antiviral activity against thymidine kinase deficient and acyclovir-resistant HSV1 KOS infected in HEL cells assessed as inhibition of virus-induced cytopathic effect; assay type: functional, organism-based; conditions: Human alphaherpesvirus 1, KOS
Human alphaherpesvirus 2 = test: Antiviral activity against HSV2 G infected in HEL cells assessed as inhibition of virus-induced cytopathic effect; assay type: functional, organism-based; conditions: Human alphaherpesvirus 2, strain G
Enterococcus faecalis [4] = test: Antimicrobial activity against Enterococcus faecalis ATCC 29212; assay type: functional
[5] = tested on: Staphylococcus epidermidis; test: Antimicrobial activity against Staphylococcus epidermidis ATCC 35984 biofilms; assay type: functional
Human alphaherpesvirus 1 [6] = test: Antiviral activity against HSV1 KOS infected in HEL cells assessed as inhibition of virus-induced cytopathic effect; assay type: functional, organism-based; conditions: Human alphaherpesvirus 1, KOS
Staphylococcus aureus [7] = test: Antimicrobial activity against methicillin-resistant Staphylococcus aureus ATCC 33591; assay type: functional
Enterococcus faecalis [8] = test: Antimicrobial activity against Enterococcus faecalis 15376 over-expressing vanA; assay type: functional
[9] = Toxicity in HEL cells assessed as induction of cell morphology changes; assay type: cell-based; conditions: human
Influenza B virus = test: Antiviral activity against Influenza B virus (B/Hong Kong/05/1972) […] infected in MDCK cells assessed as inhibition of virus-induced cytopathic effect; assay type: functional, cell-based; conditions: B/Hong Kong/05/1972, MDCK
Vaccinia virus = test: Antiviral activity against Vaccinia virus infected in HEL cells assessed as inhibition of virus-induced cytopathic effect; assay type: functional, organism-based; conditions: Orthopoxvirus vaccinia
Influenza A virus = test: Antiviral activity against Influenza A virus (A/Puerto Rico/8/1934(H1N1)) H1N1 infected in MDCK cells assessed as inhibition of virus-induced cytopathic effect; assay type: functional, organism-based
Enterococcus faecalis [10] = test: Antimicrobial activity against Enterococcus faecalis ATCC 51299 over-expressing vanB; assay type: functional
Bacillus subtilis = test: Antimicrobial activity against Bacillus subtilis ATCC 6633; assay type: functional
Staphylococcus aureus [11] = test: Antimicrobial activity against methicillin-sensitive Staphylococcus aureus ATCC 29213; assay type: functional
[12] = tested on: Staphylococcus epidermidis; test: Antimicrobial activity against Staphylococcus epidermidis over-expressing MecA; assay type: functional

Row | Structure (SMILES) | MCC [1] [µM] | EC50 (H3N2 subtype) [µM] | EC50 [2] [µM] | EC50 (Human alphaherpesvirus 1 [3]) [µM] | EC50 (Human alphaherpesvirus 2) [µM] | MBC (Enterococcus faecalis [4]) [mg/L] | MIC (Enterococcus faecalis [4]) [mg/L] | MBC [5] [mg/L] | MIC [5] [mg/L] | EC50 (Human alphaherpesvirus 1 [6]) [µM] | MBC (Staphylococcus aureus [7]) [mg/L] | MIC (Staphylococcus aureus [7]) [mg/L] | MBC (Enterococcus faecalis [8]) [mg/L] | MIC (Enterococcus faecalis [8]) [mg/L] | MCC [9] [µM] | EC50 (Influenza B virus) [µM] | EC50 (Vaccinia virus) [µM] | EC50 (Influenza A virus) [µM] | MBC (Enterococcus faecalis [10]) [mg/L] | MIC (Enterococcus faecalis [10]) [mg/L] | also measured
1 | CC(=O)N[C@H]1[C@H](O[C@@H]2c3ccc(c(Cl)c3)Oc3cc4cc(c3O)Oc3ccc(cc3Cl)C[C@H]3NC(=O)[C@H](n5cc6ccccc6c5Sc5nc6ccccc6s5)c5ccc(O)c(c5)Oc5cc(O)cc(c5)[C@H](NC3=O)C(=O)N[C@H]4C(=O)N[C@H]3C(=O)N[C@@H]2C(=O)N[C@H](C(=O)O)c2cc(O)cc(O)c2-c2cc3ccc2O)O[C@H](CO)[C@@H](O)[C@@H]1O | 4 | > 100 | > 100 | 45 | 45 | 256 (≈ 154 µM) | 2 (≈ 1.2 µM) | 0.5 (≈ 0.3 µM) | 0.0075 (≈ 0.0045 µM) | 45 | 0.5 (≈ 0.3 µM) | 0.0075 (≈ 0.0045 µM) | 256 (≈ 154 µM) | 0.0313 (≈ 0.0188 µM) | ≥ 100 | > 100 | 47 | > 100 | 256 (≈ 154 µM) | 0.0625 (≈ 0.0375 µM) | MBC (Bacillus subtilis): 2 mg/L (≈ 1.2 µM); MIC (Bacillus subtilis): 1 mg/L (≈ 0.6 µM); MBC (Staphylococcus aureus [11]): 0.5 mg/L (≈ 0.3 µM); MIC (Staphylococcus aureus [11]): 0.0075 mg/L (≈ 0.0045 µM); MBC [12]: 256 mg/L (≈ 154 µM); MIC [12]: 4 mg/L (≈ 2.4 µM)
2 | CC(=O)N[C@H]1[C@H](O[C@@H]2c3ccc(c(Cl)c3)Oc3cc4cc(c3O)Oc3ccc(cc3Cl)C[C@H]3NC(=O)[C@H](n5cc6ccccc6c5Sc5ccccc5)c5ccc(O)c(c5)Oc5cc(O)cc(c5)[C@H](NC3=O)C(=O)N[C@H]4C(=O)N[C@H]3C(=O)N[C@@H]2C(=O)N[C@H](C(=O)O)c2cc(O)cc(O)c2-c2cc3ccc2O)O[C@H](CO)[C@@H](O)[C@@H]1O | 4 | > 100 | > 20 | ≥ 20 | 9 | 256 (≈ 159 µM) | 0.0075 (≈ 0.00466 µM) | 0.5 (≈ 0.31 µM) | 0.0165 (≈ 0.0102 µM) | 9 | 2 (≈ 1.24 µM) | 0.0625 (≈ 0.0388 µM) | 32 (≈ 19.9 µM) | 2 (≈ 1.24 µM) | ≥ 20 | > 100 | > 20 | > 100 | 256 (≈ 159 µM) | 2 (≈ 1.24 µM) | MBC (Bacillus subtilis): 1 mg/L (≈ 0.621 µM); MIC (Bacillus subtilis): 1 mg/L (≈ 0.621 µM); MBC (Staphylococcus aureus [11]): 128 mg/L (≈ 79.5 µM); MIC (Staphylococcus aureus [11]): 0.125 mg/L (≈ 0.0776 µM); MBC [12]: 32 mg/L (≈ 19.9 µM); MIC [12]: 2 mg/L (≈ 1.24 µM)
3 | CC(=O)N[C@@H]1[C@@H](O)[C@H](O)[C@@H](CO)O[C@H]1Sc1c2ccccc2cn1[C@H]1C(=O)N[C@@H]2Cc3ccc(c(Cl)c3)Oc3cc4cc(c3O)Oc3ccc(cc3Cl)[C@@H](O[C@@H]3O[C@H](CO)[C@@H](O)[C@H](O)[C@H]3NC(C)=O)[C@@H]3NC(=O)[C@H](NC(=O)[C@@H]4NC(=O)[C@@H](NC2=O)c2cc(O)cc(c2)Oc2cc1ccc2O)c1ccc(O)c(c1)-c1c(O)cc(O)cc1[C@@H](C(=O)O)NC3=O | < 0.8 | > 100 | 52 | 45 | 45 | 256 (≈ 147 µM) | 1 (≈ 0.576 µM) | 0.5 (≈ 0.288 µM) | 0.0313 (≈ 0.018 µM) | 47 | 1 (≈ 0.576 µM) | 1 (≈ 0.576 µM) | 256 (≈ 147 µM) | 1 (≈ 0.576 µM) | ≥ 100 | > 100 | 47 | > 100 | 256 (≈ 147 µM) | 4 (≈ 2.3 µM) | MBC (Bacillus subtilis): 1 mg/L (≈ 0.576 µM); MIC (Bacillus subtilis): 0.125 mg/L (≈ 0.0719 µM); MBC (Staphylococcus aureus [11]): 1 mg/L (≈ 0.576 µM); MIC (Staphylococcus aureus [11]): 0.5 mg/L (≈ 0.288 µM); MBC [12]: 64 mg/L (≈ 36.8 µM); MIC [12]: 0.0075 mg/L (≈ 0.00432 µM)
